{
  "source": "patent US20210369669A1",
  "about": "“AUTOPHAGY ACTIVATORS AND INHIBITORS OF FERROPTOSIS FOR PREVENTING ACUTE RENAL FAILURE AND NEUROTOXCITY INDUCED BY CERTAIN ANTIBIOTICS” (SystaMedic Inc., priority 2018, published 2021)",
  "key": {"[1]": {"settings": "monkeys; estimated from oral studies; from U.S. Pat. No. 5,629,337; cited from earlier work"}, "[2]": {"tested_on": "rat model of acute renal injury (colistin-induced)", "test": "Colistin-induced acute renal injury in rats: serum creatinine and urea", "assay_type": "in vivo", "experimental": "Rats were injected I.P. on the left side of the animals with a 30 mg/kg dose of colistin once a day for eight consecutive days."}, "[3]": {"settings": "dogs; estimated from oral studies; from U.S. Pat. No. 5,629,337; cited from earlier work"}, "[4]": {"tested_on": "mouse model of renal injury (colistin-induced)", "test": "Colistin-induced acute renal injury, mouse model", "assay_type": "in vivo", "settings": "very low doses of zileuton"}, "[5]": {"tested_on": "cisplatin-induced renal damage", "settings": "rats; cited from earlier work"}, "mouse N2a neuronal cells": {"tested_on": "mouse N2a neuronal cells", "settings": "cited from earlier work"}, "[6]": {"tested_on": "central and peripheral nerve tissues", "settings": "colistin 15 mg/kg/day for 7 days in mice; cited from earlier work"}, "[7]": {"settings": "rat serum, day 1 prior to dosing, colistin 30 mg/kg I.P. once a day, zileuton 3 mg/kg I.P., edaravone 15 mg/kg I.P. or atorvastatin 25 mg/kg P.O."}, "[8]": {"settings": "rat serum, day 4, colistin 30 mg/kg I.P. once a day, zileuton 3 mg/kg I.P., edaravone 15 mg/kg I.P. or atorvastatin 25 mg/kg P.O."}, "[9]": {"settings": "rat serum, day 8, colistin 30 mg/kg I.P. once a day, zileuton 3 mg/kg I.P., edaravone 15 mg/kg I.P. or atorvastatin 25 mg/kg P.O."}},
  "note": "Like-named read-outs stand apart in the source and are kept apart here.",
  "data": [
    {"compound": "CC(c1cc2ccccc2s1)N(O)C(N)=O", "note": "(racemic) [zileuton, (±) 1-[1-(1-benzothiophen-2-yl)ethyl]-1-hydroxyurea]", "values": [
      {"measurement": "elimination half-life", "setting": "[1]", "value": 0.333, "unit": "h"},
      {"measurement": "Inhibition of colistin-induced acute renal injury", "setting": "[2]; very low doses of zileuton, rat model", "value": "potent inhibition"},
      {"measurement": "Effect on colistin-induced elevation of creatinine and urea levels", "setting": "[2]; zileuton I.P. around 3 mg/kg, colistin 30 mg kg, rat", "value": "blocks the elevation of creatinine and urea levels"},
      {"measurement": "elimination half-life", "setting": "[3]", "value": 7, "unit": "h"},
      {"measurement": "Inhibition of colistin-induced acute renal injury", "setting": "[4]", "value": "potent inhibition"},
      {"measurement": "Protection against cisplatin-induced renal damage", "setting": "[5]", "value": "protect rats against cisplatin-induced renal damage"}
    ]},
    {"compound": "CC(C)c1c(C(=O)Nc2ccccc2)c(-c2ccccc2)c(-c2ccc(F)cc2)n1CC[C@@H](O)C[C@@H](O)CC(=O)O", "note": "[atorvastatin]", "values": [
      {"measurement": "Effect on colistin-induced elevation of creatinine and urea levels", "setting": "[2]; colistin 3 mg/kg/diem over eight days, rats", "value": "blocks the elevation of creatinine and urea levels"}
    ]},
    {"compound": "CCN(CC)CCCC(C)Nc1ccnc2cc(Cl)ccc12", "note": "(centres unmarked) [chloroquine]", "values": [
      {"measurement": "Effect on colistin-induced apoptosis", "setting": "mouse N2a neuronal cells; inhibition of autophagy by chloroquine", "value": "enhances colistin-induced apoptosis"}
    ]},
    {"compound": "CC1=NN(c2ccccc2)C(=O)C1", "note": "[edaravone, 5-methyl-2-phenyl-4H-pyrazol-3-one]", "values": [
      {"measurement": "Protection against cisplatin-induced renal damage", "setting": "[5]", "value": "protect rats against cisplatin-induced renal damage"}
    ]},
    {"compound": "Colistin Sulfate", "values": [
      {"measurement": "Mean Creatinine Day 1", "setting": "[2]; [7]", "value": 0.44, "unit": "mg/dL"},
      {"measurement": "Mean Urea Day 1", "setting": "[2]; [7]", "value": 37, "unit": "mg/dL"},
      {"measurement": "Mean Creatinine Day 4", "setting": "[2]; [8]", "value": 0.71, "unit": "mg/dL"},
      {"measurement": "Mean Urea Day 4", "setting": "[2]; [8]", "value": 69, "unit": "mg/dL"},
      {"measurement": "Mean Creatinine Day 8", "setting": "[2]; [9]", "value": 0.96, "unit": "mg/dL"},
      {"measurement": "Mean Urea Day 8", "setting": "[2]; [9]", "value": 85, "unit": "mg/dL"}
    ]},
    {"compound": "colistin", "values": [
      {"measurement": "Apoptosis of neuronal cells", "setting": "mouse N2a neuronal cells; 200 μM colistin for 24 h", "value": "become apoptotic"},
      {"measurement": "Mitochondrial dysfunction in nerve tissues", "setting": "[6]", "value": "induced mitochondrial dysfunction in central and peripheral nerve tissues"}
    ]}
  ]
}
